Patent publication US11254668B2, “Pyrazolo[1,5-A]pyrazin-4-yl and related derivatives” (Pfizer Inc., priority 2017, dated 2022)
Like-named read-outs stand apart in the source and are kept apart here.

Columns and labels:
Format in all cases: biochemical
JAK2 = JAK2 (Homo sapiens (Human), UniProt O60674); assay: JAK Caliper Enzyme Assay at 1 mM ATP, JAK2
In short: (§1)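 First, compound was incubated at room temperature with recombinant human kinase domain, a synthetic peptide and 1 mM ATP until 20–30% of peptide was phosphorylated. Next, EDTA stopped the reaction. Finally, electrophoretic separation quantified product, and percent effect relative to controls was plotted against concentration.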

JAK3 = JAK3 (Homo sapiens (Human), UniProt P52333); assay: JAK Caliper Enzyme Assay at 1 mM ATP, JAK3
JAK3, sequence (P52333 822-1111): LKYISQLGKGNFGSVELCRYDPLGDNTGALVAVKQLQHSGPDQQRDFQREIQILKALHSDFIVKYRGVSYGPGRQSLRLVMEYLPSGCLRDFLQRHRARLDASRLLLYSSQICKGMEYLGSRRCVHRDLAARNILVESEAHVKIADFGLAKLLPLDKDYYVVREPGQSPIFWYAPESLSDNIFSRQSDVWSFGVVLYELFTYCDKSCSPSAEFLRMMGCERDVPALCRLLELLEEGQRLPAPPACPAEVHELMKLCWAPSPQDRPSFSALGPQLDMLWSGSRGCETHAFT
In short: (§2)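 Recombinant human kinase domains phosphorylate a fluorescent synthetic peptide at 1 mM ATP, room temperature, with enzyme and time tuned for 20-30% conversion; EDTA-stopped. Product/substrate separated by microfluidic mobility shift; percent effect versus DMSO and positive controls fitted to IC50 (nM).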

JAK1 = JAK1 (Homo sapiens (Human), UniProt P23458); assay: JAK Caliper Enzyme Assay at 1 mM ATP, JAK1
JAK1, sequence (P23458 875-1153): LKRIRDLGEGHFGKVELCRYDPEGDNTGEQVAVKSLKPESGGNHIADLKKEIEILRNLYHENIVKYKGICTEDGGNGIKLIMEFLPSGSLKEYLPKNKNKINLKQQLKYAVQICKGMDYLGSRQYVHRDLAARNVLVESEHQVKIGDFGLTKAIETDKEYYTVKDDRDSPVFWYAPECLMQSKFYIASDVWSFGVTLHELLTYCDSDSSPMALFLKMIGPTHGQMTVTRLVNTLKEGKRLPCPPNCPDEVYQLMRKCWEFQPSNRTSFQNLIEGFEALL
In short: as §2

TYK2 = TYK2 (Homo sapiens (Human), UniProt P29597); assay: JAK Caliper Enzyme Assay at 1 mM ATP, TYK2
TYK2, sequence (P29597 897-1176): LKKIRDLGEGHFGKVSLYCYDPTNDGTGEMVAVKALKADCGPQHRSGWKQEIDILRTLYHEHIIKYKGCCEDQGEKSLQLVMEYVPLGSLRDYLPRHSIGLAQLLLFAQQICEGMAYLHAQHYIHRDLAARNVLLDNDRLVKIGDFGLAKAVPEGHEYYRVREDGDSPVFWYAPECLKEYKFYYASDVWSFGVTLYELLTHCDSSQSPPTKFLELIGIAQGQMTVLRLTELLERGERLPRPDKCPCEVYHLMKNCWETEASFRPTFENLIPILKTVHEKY
In short: as §1

JAK2, sequence (O60674 849-1124): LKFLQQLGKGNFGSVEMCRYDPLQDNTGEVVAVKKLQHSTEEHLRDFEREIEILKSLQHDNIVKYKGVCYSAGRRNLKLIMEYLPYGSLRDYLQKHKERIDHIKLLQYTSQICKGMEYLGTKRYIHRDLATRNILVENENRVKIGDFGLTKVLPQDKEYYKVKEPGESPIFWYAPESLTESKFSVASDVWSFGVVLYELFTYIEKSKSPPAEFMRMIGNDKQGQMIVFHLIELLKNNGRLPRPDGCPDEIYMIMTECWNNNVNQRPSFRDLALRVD

IC50 (JAK2; JAK Caliper enzyme assay) [nM] | IC50 (JAK3; JAK Caliper enzyme assay) [nM] | IC50 (JAK1; JAK Caliper enzyme assay) [nM] | IC50 (TYK2; JAK Caliper enzyme assay) [nM] | IC50 (JAK2) [nM] | IC50 (JAK3) [nM] | IC50 (JAK1) [nM] | IC50 (TYK2) [nM] | Structure (SMILES)
– | – | – | – | 861 | > 10000 | 2750 | 59 | CO[C@H]1C[C@](CC#N)(n2ccc(-c3nc(-c4cc(CO)n[nH]4)cc4ncccc34)n2)C1 [Example 50, [trans-1-(3-{7-[3-(hydroxymethyl)-1H-pyrazol-5-yl]-1,6-naphthyridin-5-yl}-1H-pyrazol-1-yl)-3-methoxycyclobutyl]acetonitrile]
– | – | – | – | 34 | 3360 | 60 | 9 | Cc1cc(-c2nc(-c3cn[nH]c3)cc3ncccc23)nn1[C@]1(CC#N)C[C@H](C#N)C1 [Example 274, cis-3-(cyanomethyl)-3-{5-methyl-3-[7-(1H-pyrazol-4-yl)-1,6-naphthyridin-5-yl]-1H-pyrazol-1-yl}cyclobutanecarbonitrile]
– | – | – | – | 6690 | > 10000 | > 10000 | 799 | CS(=O)(=O)Nc1cncc(-c2cc3ncccc3c(-c3ccn(C4(CC#N)CN(S(C)(=O)=O)C4)n3)n2)c1 [Example 204, N-[5-(5-{1-[3-(cyanomethyl)-1-(methylsulfonyl)azetidin-3-yl]-1H-pyrazol-3-yl}-1,6-naphthyridin-7-yl)pyridin-3-yl]methanesulfonamide]
– | – | – | – | 5630 | > 10000 | > 10000 | 4020 | CC(=O)N1CC2(C1)CC(CC#N)(n1ccc(-c3nc(-c4cc[nH]n4)cc4ncccc34)n1)C2 [Example 38, (2-acetyl-6-{3-[7-(1H-pyrazol-3-yl)-1,6-naphthyridin-5-yl]-1H-pyrazol-1-yl}-2-azaspiro[3.3]hept-6-yl)acetonitrile]
> 10000 | > 10000 | > 10000 | 2400 | – | – | – | – | N#CC[C@]1(n2ncc(-c3cc(-c4cnc(N)cn4)cc4ncccc34)n2)C[C@H](C#N)C1 [Example 399, trans-3-{4-[7-(5-aminopyrazin-2-yl)quinolin-5-yl]-2H-1,2,3-triazol-2-yl}-3-(cyanomethyl)cyclobutanecarbonitrile]
– | – | – | – | 399 | > 10000 | 1430 | 56 | CS(=O)(=O)N1CC(CC#N)(n2ccc(-c3nc(-c4cnc5c(c4)NCCN5)cc4ncccc34)n2)C1 [Example 170, [1-(methylsulfonyl)-3-{3-[7-(1,2,3,4-tetrahydropyrido[2,3-b]pyrazin-7-yl)-1,6-naphthyridin-5-yl]-1H-pyrazol-1-yl}azetidin-3-yl]acetonitrile]
3530 | > 10000 | > 10000 | 1370 | – | – | – | – | Cn1cc(-c2cc3nccnc3c(-c3ccn(C4(CC#N)CN(CC#N)C4)n3)n2)cn1 [Example 481]
– | – | – | – | 114 | > 10000 | 1200 | 26 | N#CC[C@]1(n2ncc(-c3cc(-c4ccc(F)cn4)cc4ncccc34)n2)C[C@@H](C#N)C1 [Example 347, cis-3-(cyanomethyl)-3-{4-[7-(5-fluoropyridin-2-yl)quinolin-5-yl]-2H-1,2,3-triazol-2-yl}cyclobutanecarbonitrile]
924 | > 10000 | 9320 | 128 | – | – | – | – | CS(=O)(=O)N1CC(CC#N)(n2ncc(-c3cc(-c4ccc(CN)cc4)cc4ncccc34)n2)C1 [Example 428, [3-(4-{7-[4-(aminomethyl)phenyl]quinolin-5-yl}-2H-1,2,3-triazol-2-yl)-1-(methylsulfonyl)azetidin-3-yl]acetonitrile]
– | – | – | – | > 10000 | > 10000 | > 10000 | 685 | Cn1ncc(-c2cc3ncccc3c(-c3ccn(C4(CC#N)CN(S(C)(=O)=O)C4)n3)n2)c1C(N)=O [Example 134, 4-(5-{1-[3-(cyanomethyl)-1-(methylsulfonyl)azetidin-3-yl]-1H-pyrazol-3-yl}-1,6-naphthyridin-7-yl)-1-methyl-1H-pyrazole-5-carboxamide]
– | – | – | – | > 10000 | > 10000 | > 10000 | 781 | COc1ncccc1-c1cc2ncccc2c(-c2ccn(C3(CC#N)CN(S(C)(=O)=O)C3)n2)n1 [Example 187, [3-{3-[7-(2-methoxypyridin-3-yl)-1,6-naphthyridin-5-yl]-1H-pyrazol-1-yl}-1-(methylsulfonyl)azetidin-3-yl]acetonitrile]
– | – | – | – | 45 | > 10000 | 219 | 60 | Cn1cc(-c2cc3ncccc3c(-c3cc(C4(CC#N)CN(CC#N)C4)no3)n2)cn1 [Example 282]
– | – | – | – | > 10000 | > 10000 | > 10000 | 135 | CCOC(=O)Nc1cncc(-c2cc3ncccc3c(-c3ccn(C4(CC#N)CN(S(C)(=O)=O)C4)n3)n2)c1 [Example 202, ethyl [5-(5-{1-[3-(cyanomethyl)-1-(methylsulfonyl)azetidin-3-yl]-1H-pyrazol-3-yl}-1,6-naphthyridin-7-yl)pyridin-3-yl]carbamate]
– | – | – | – | 82 | > 10000 | 266 | 42 | CO[C@H]1C[C@](CC#N)(n2cc(-c3nc(-c4cc(CO)n[nH]4)cc4ncccc34)cn2)C1 [Example 13, [trans-1-(4-{7-[3-(hydroxymethyl)-1H-pyrazol-5-yl]-1,6-naphthyridin-5-yl}-1H-pyrazol-1-yl)-3-methoxycyclobutyl]acetonitrile]
6780 | > 10000 | 6270 | 984 | – | – | – | – | N#CC[C@]1(n2ncc(-c3cc(-c4cc(C(N)=O)c(F)cn4)cc4ncccc34)n2)C[C@H](C#N)C1 [Example 385, 2-(5-{2-[cis-3-cyano-1-(cyanomethyl)cyclobutyl]-2H-1,2,3-triazol-4-yl}quinolin-7-yl)5-fluoropyridine-4-carboxamide]
– | – | – | – | 971 | > 10000 | 554 | 32 | N#CCC1(n2ccc(-c3nc(-c4ccc(=O)[nH]c4)cc4ncccc34)n2)CN(S(=O)(=O)C2CC2)C1 [Example 246, [1-(cyclopropylsulfonyl)-3-{3-[7-(6-oxo-1,6-dihydropyridin-3-yl)-1,6-naphthyridin-5-yl]-1H-pyrazol-1-yl}azetidin-3-yl]acetonitrile]
– | – | – | – | 725 | > 10000 | 8340 | 84 | COc1cc(-c2cc3ncccc3c(-c3ccn(C4(CC#N)CN(S(C)(=O)=O)C4)n3)n2)ccn1 [Example 189]

Structure (SMILES) | IC50 (JAK2; JAK Caliper enzyme assay) [nM] | IC50 (JAK3; JAK Caliper enzyme assay) [nM] | IC50 (JAK1; JAK Caliper enzyme assay) [nM] | IC50 (TYK2; JAK Caliper enzyme assay) [nM] | IC50 (JAK2) [nM] | IC50 (JAK3) [nM] | IC50 (JAK1) [nM] | IC50 (TYK2) [nM]
N#CC[C@]1(n2cc(-c3cc(-c4cccc(C(N)=O)n4)cc4nccn34)cn2)C[C@H](C#N)C1 [Example 470, 6-(5-{1-[cis-3-cyano-1-(cyanomethyl)cyclobutyl]-1H-pyrazol-4-yl}imidazo[1,2-a]pyridin-7-yl)pyridine-2-carboxamide] | 147 | > 10000 | 620 | 25 | – | – | – | –
N#CC[C@]1(n2ccc(-c3nc(-c4ccc(S(N)(=O)=O)nc4)cc4ncccc34)n2)C[C@H](C#N)C1 [Example 211, 5-(5-{1-[cis-3-cyano-1-(cyanomethyl)cyclobutyl]-1H-pyrazol-3-yl}-1,6-naphthyridin-7-yl)pyridine-2-sulfonamide] | – | – | – | – | 39 | 9820 | 181 | 17
